Results taken from patent publication US20110306580A1 (DONG WHA PHARMACEUTICAL CO ., LTD., priority 2009, published 2011).

System: ROS17/2.8 cells
Assay: Cell growth of ROS17/2.8 cells by the MTT method (formed formazan)
Format: cell-based, rat
Details: for activity at 0.02 µM: Rattus norvegicus, 2×10^−5M Test Compound solution diluted 1000 fold, read-out: Amount of formed formazan, Solution 8 (Test Compound alone); for activity at 0.02 µM / Amount of formed formazan, Solution 10 (a group of a drug combination): percentage to Solution 7 addition group, about 48 hours, average ± standard deviation of four wells; for Relative index of Solution 10 (a group of a drug combination) / Amount of formed formazan, Solution 10 (a group of a drug combination): Test Compound in combination with 1α,25-dihydroxyvitamin D3; for Relative index of Solution 10 (a group of a drug combination) / Relative index of Solution 8 (Test Compound alone): amount of formed formazan, Solution 7 = 1.00
Experimental: 100 μL of a 10% FCS-αMEM comprising either DMSO and ethanol (referred to as Solution 7, hereinafter), a Test Compound solution and ethanol (referred to as Solution 8, hereinafter), a 1α,25-dihydroxyvitamin D3 solution and DMSO (referred to as Solution 9, hereinafter) or a Test Compound solution and the 1α,25-dihydroxyvitamin D3 solution (referred to as Solution 10, hereinafter) was dispensed. The ROS17/2.8 cells were inoculated to a medium at a density of 5×10^3 cells/100 μL/well. After culture of the cells for about 48 hours, the effect of Test Compound and 1α,25-dihydroxyvitamin D3 on the cell growth of the ROS17/2.8 cells was evaluated using the MTT method. Namely, after culture of the cells for about 44 hours, an MTT solution (3-[4,5-dimethylthiazol-2-yl]-2,5-diphenyltetrazolium bromide 2 mg/mL) was added in an amount of 25 μL/well, and the cells were further cultured for four hours. After the medium was removed, DMSO was added in an amount of 100 μL/well so as to dissolve the formed formazan. The amount of the formed formazan was determined by measuring the absorbance (at 560 nm) of the solution by a microplate reader.
The 10% FCS-αMEM comprising Solution 7 was prepared by diluting DMSO by 1000 fold with the 10% FCS-αMEM, and diluting ethanol by 10000 fold with the 10% FCS-αMEM. The 10% FCS-αMEM comprising Solution 8 was prepared by diluting a 2×10^−5M Test Compound solution by 1000 fold with the 10% FCS-αMEM, and diluting ethanol by 10000 fold with the 10% FCS-αMEM. The 10% FCS-αMEM comprising Solution 9 was prepared by diluting 2×10^−3M 1α,25-dihydroxyvitamin D3 solution by 10000 fold with the 10% FCS-αMEM, and diluting DMSO by 1000 fold with the 10% FCS-αMEM. The 10% FCS-αMEM comprising Solution 10 was prepared by diluting a 2×10^−5M Test Compound solution by 1000 fold with the 10% FCS-αMEM, and diluting 2×10^−3M 1α,25-dihydroxyvitamin D3 solution by 10000 fold with the 10% FCS-αMEM.
The amount of the formed formazan in each solution addition group was obtained in terms of a percentage to the average value of the amounts of formed formazan in four wells in a Solution 7 addition group. All the determined values were shown in terms of the average value±standard deviation of the four wells of each solution addition group.

Row | SMILES | activity at 0.02 µM | Relative index of Solution 10 (a group of a drug combination) | Amount of formed formazan, Solution 10 (a group of a drug combination) | Relative index of Solution 8 (Test Compound alone)
1 | Cc1nc(-c2ccc(OCCCCCN(C)c3ccc(/C(N)=N/O)cc3)cc2)c(C(C)C)s1 [Compound 19, N-hydroxy-4-{5-[4-(5-isopropyl-2-methyl-1,3-thiazol-4-yl)phenoxy]pentylmethylamino}benzamidine] | 108 ± 2.7% | 1.19 | 119 ± 4.8 # % | 1.08
2 | Cc1nc(-c2ccc(OCCCCCOc3ccc(/C(N)=N/O)c(F)c3)cc2)c(C(C)C)s1 [Compound 20, N-hydroxy-2-fluoro-4-{5-[4-(5-isopropyl-2-methyl-1,3-thiazol-4-yl)phenoxy]pentoxy}benzamidine] | 106 ± 3.1% | 1.13 | 113 ± 1.0 ## % | 1.06
3 | CCc1sc(C2CCCCC2)nc1-c1ccc(OCCCCOc2ccc(/C(N)=N/O)cc2)cc1 [Compound 21, N-hydroxy-4-{4-[4-(2-cyclohexyl-5-ethyl-1,3-thiazol-4-yl)phenoxy]butoxy}benzamidine] | 105 ± 2.5% | 1.11 | 111 ± 1.7 # % | 1.05
4 | Cc1nc(-c2ccc(OCc3cccc(COc4ccc(/C(N)=N/O)cc4)c3)cc2)c(C(C)C)s1 [Compound 22, N-hydroxy-4-{3-[4-(5-isopropyl-2-methyl-1,3-thiazol-4-yl)phenoxymethyl]benzyloxy}benzamidine] | 110 ± 4.1% | 1.22 | 122 ± 2.1 ## % | 1.10
5 | Cc1nc(-c2ccc(OCCCCCOc3ccc(/C(N)=N/O)cc3)cc2)c(CCn2ccnc2)s1 [Compound 23, N-hydroxy-4-{5-[4-(5-(2-(imidazol-1-yl)ethyl)-2-methyl-1,3-thiazol-4-yl)phenoxy]pentoxy}benzamidine] | 107 ± 5.5% | 1.23 | 123 ± 10.2 # % | 1.07
6 | Cc1nc(-c2ccc(OCCCCCOc3ccc(/C(N)=N/O)cc3)cc2)c(CCNC(C)C)s1 [Compound 24, N-hydroxy-4-{5-[4-(5-(2-(isopropylamino)ethyl)-2-methyl-1,3-thiazol-4-yl)phenoxy]pentoxy}benzamidine] | 110 ± 4.4% | 1.18 | 118 ± 2.9 ## % | 1.10
7 | Cc1nc(-c2ccc(OCCCCCOc3ccc(/C(N)=N/O)cc3)cc2)c(CCNCCCOC(C)C)s1 [Compound 25, N-hydroxy-4-{5-[4-(5-(2-(3-(isopropoxy)propylamino)ethyl)-2-methyl-1,3-thiazol-4-yl)phenoxy]pentoxy}benzamidine] | 101 ± 3.2% | 1.12 | 112 ± 1.5 # % | 1.01
8 | CCN(CC)CCc1sc(C)nc1-c1ccc(OCCCCCOc2ccc(/C(N)=N/O)cc2)cc1 [Compound 26, N-hydroxy-4-{5-[4-(5-(2-diethylaminoethyl)-2-methyl-1,3-thiazol-4-yl)phenoxy]pentoxy}benzamidine] | 102 ± 2.6% | 1.13 | 113 ± 2.7 # % | 1.02
9 | CC(C)c1nc(-c2ccc(OCCCCCOc3ccc(/C(N)=N/O)cc3)cc2)c(CCN2CCSCC2)s1 [Compound 27, N-hydroxy-4-{5-[4-(2-isopropyl-5-(2-(thiomorpholin-4-yl)ethyl)-1,3-thiazol-4-yl)phenoxy]pentoxy}benzamidine] | 98 ± 1.9% | 1.12 | 112 ± 0.9 ## % | 0.98
10 | CN(C)CCc1sc(C2CCCCC2)nc1-c1ccc(OCCCCCOc2ccc(/C(N)=N/O)cc2)cc1 [Compound 28, N-hydroxy-4-{5-[4-(2-cyclohexyl-5-(2-(dimethylamino)ethyl)-1,3-thiazol-4-yl)phenoxy]pentoxy}benzamidine] | 99 ± 3.5% | 1.11 | 111 ± 2.0 # % | 0.99
11 | CN(C)c1nc(-c2ccc(OCCCCCOc3ccc(/C(N)=N/O)cc3)cc2)c(CCN2CCOCC2)s1 [Compound 29, N-hydroxy-4-{5-[4-(2-dimethylamino-5-(2-(morpholin-4-yl)ethyl)-1,3-thiazol-4-yl)phenoxy]pentoxy}benzamidine] | 102 ± 5.6% | 1.14 | 114 ± 2.6 ## % | 1.02
12 | CC(C)c1nc(-c2ccc(OCCCCCOc3ccc(/C(N)=N/O)cc3)cc2)c(CCN(C(=O)c2ccncc2)C2CC2)s1 [Compound 30, N-hydroxy-4-{5-[4-(5-(2-(cyclopropyl(pyridin-4-carbonyl)amino)ethyl}-2-isopropyl-1,3-thiazol-4-yl)phenoxy]pentoxy}benzamidine] | 99 ± 5.3% | 1.13 | 113 ± 1.2 ## % | 0.99
13 | CNC(=O)c1sc(N)nc1-c1ccc(OCCCCCOc2ccc(/C(N)=N/O)cc2)cc1 [Compound 31, N-hydroxy-4-{5-[4-(2-amino-5-(N-methylcarbamoyl)-1,3-thiazol-4-yl)phenoxy]pentoxy}benzamidine] | 101 ± 2.9% | 1.10 | 110 ± 0.4 # % | 1.01
14 | Cc1nc(-c2ccc(OCCCCCOc3ccc(/C(N)=N/O)cc3)cc2)c(Cn2ccnc2)s1 [Compound 32, N-hydroxy-4-{5-[4-(5-(imidazol-1-ylmethyl)-2-methyl-1,3-thiazol-4-yl]phenoxy}pentoxy}benzamidine] | 97 ± 3.3% | 1.10 | 110 ± 2.4 # % | 0.97
15 | CCN(C)c1nc(-c2ccc(OCCCCCOc3ccc(/C(N)=N/O)cc3)cc2)c(CN2CCOCC2)s1 [Compound 33, N-hydroxy-4-{5-[4-{2-ethylmethylamino-5-(morpholin-4-ylmethyl)-1,3-thiazol-4-yl)phenoxy]pentoxy}benzamidine] | 106 ± 1.7% | 1.13 | 113 ± 1.9 ## % | 1.06
16 | Cc1nc(-c2ccc(OCCCCCOc3ccc(/C(N)=N/O)cc3)cc2)c(N(C)C)s1 [Compound 35, N-hydroxy-4-{5-[4-(5-dimethylamino-2-methyl-1,3-thiazol-4-yl)phenoxy]pentoxy}benzamidine] | 101 ± 2.3% | 1.12 | 112 ± 3.0 ## % | 1.01
